Source: patent US20230265151A1, “GIP/GLP1 CO-AGONIST COMPOUNDS” (priority 2020, published 2023)
Read-outs that look alike come from different tables or passages of the source. *1 amine or outer side, *2 acyl side, *3 side chain or, on linkers, in order; H or OH if unused. Where a SMILES comes first, the peptide text is derived from it. Side-chain parts run from the residue outwards. [ ]: non-standard residue; d: D form. The star is where a group is joined. Decanoyl(10-(4-HOOC-PhO)) = O=C(O)c1ccc(OCCCCCCCCCC(=O)*)cc1; αMePhe(2-F) = C[C@](N)(Cc1ccccc1F)C(=O)O; γGlu = O=C(O)[C@H](CCC(=O)[*:2])N[*:1]; αMeY = C[C@](N)(Cc1ccc(O)cc1)C(=O)O; 4Pal = N[C@@H](Cc1ccncc1)C(=O)O; αMeL = CC(C)C[C@](C)(N)C(=O)O; Orn = NCCC[C@H](N)C(=O)O; AEEA = NCCOCCOCC(=O)O; Aib = CC(C)(N)C(=O)O

Tests used:
Format in all cases: cell-based
hGIPR = biological target: T1, hGIPR (Homo sapiens, UniProt P48546); test: Functional cAMP formation (HTRF) in HEK-293 clonal cells expressing hGIPR, 0.1% bovine casein, without or with 1.0% human serum albumin; conditions: for Emax: percent of maximal response to GIP(1-42)NH2; for EC50: hGIPR EC50, nM (SEM, n), geometric mean
T1 construct: expressed in transfected cells
T1 sequence (P48546 22-466): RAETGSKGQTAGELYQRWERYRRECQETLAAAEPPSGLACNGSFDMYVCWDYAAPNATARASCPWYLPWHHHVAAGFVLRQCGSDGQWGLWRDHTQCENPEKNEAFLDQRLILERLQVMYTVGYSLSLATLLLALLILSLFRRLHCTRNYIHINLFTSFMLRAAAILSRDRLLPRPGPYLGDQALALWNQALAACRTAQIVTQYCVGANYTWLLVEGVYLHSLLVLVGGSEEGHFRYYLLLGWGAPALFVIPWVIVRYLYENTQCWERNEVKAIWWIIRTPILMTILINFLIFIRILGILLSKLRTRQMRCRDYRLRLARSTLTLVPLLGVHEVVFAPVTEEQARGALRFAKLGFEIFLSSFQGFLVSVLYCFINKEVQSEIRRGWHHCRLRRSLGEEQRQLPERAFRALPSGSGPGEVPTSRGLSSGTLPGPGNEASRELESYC
In short: (§1)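 Readings of the HTRF 665/620 nm ratio, which falls as cAMP rises, were converted to nM cAMP using a standard curve after 30 min peptide exposure at 37° C.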

hGLP-1R = hGLP-1R (Homo sapiens, UniProt P43220); test: Functional cAMP formation (HTRF) in HEK-293 clonal cells expressing hGLP-1R, 0.1% bovine casein, without or with 1.0% human serum albumin; design: expressed in transfected cells; conditions: for EC50: hGLP-1R EC50, nM (SEM, n), geometric mean
In short: as §1

hGCGR = biological target: T2, hGCGR (Homo sapiens, UniProt P47871); test: Functional cAMP formation (HTRF) in HEK-293 clonal cells expressing hGCGR, 0.1% bovine casein, without or with 1.0% human serum albumin; conditions: hGCGR EC50, nM (SEM, n)
T2 construct: expressed in transfected cells
In short: as §1

[1] = 0.1% bovine casein and 1.0% human serum albumin, 37° C.
[2] = cAMP, 37° C., 0.1% bovine casein (no human serum albumin)

T2 sequence (P47871 26-477): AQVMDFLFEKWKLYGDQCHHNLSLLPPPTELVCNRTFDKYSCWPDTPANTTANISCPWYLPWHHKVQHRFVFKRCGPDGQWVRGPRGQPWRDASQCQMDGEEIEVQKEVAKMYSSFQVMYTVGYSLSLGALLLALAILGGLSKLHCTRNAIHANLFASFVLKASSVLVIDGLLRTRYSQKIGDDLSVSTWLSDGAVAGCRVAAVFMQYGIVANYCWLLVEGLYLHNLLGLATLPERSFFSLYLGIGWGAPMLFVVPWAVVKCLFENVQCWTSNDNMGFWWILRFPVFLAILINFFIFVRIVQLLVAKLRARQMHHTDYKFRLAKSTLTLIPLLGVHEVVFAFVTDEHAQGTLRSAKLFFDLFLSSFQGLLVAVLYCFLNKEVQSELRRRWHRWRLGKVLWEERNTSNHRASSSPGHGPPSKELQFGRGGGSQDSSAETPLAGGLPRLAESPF
Chain of hGLP-1R (P43220 24-463): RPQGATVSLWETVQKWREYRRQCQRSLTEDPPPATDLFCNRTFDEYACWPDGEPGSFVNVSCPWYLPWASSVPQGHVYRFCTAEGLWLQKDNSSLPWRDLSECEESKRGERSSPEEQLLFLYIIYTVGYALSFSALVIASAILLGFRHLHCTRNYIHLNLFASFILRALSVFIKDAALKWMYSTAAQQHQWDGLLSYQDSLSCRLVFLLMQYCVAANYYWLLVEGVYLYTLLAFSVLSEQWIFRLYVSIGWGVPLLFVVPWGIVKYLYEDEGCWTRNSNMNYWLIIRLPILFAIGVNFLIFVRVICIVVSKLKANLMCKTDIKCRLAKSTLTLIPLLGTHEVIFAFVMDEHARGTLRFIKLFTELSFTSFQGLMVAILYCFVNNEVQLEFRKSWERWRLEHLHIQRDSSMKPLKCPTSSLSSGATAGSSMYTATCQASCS

| SMILES | Emax (hGIPR; HEK293, read-out: hGIPR Emax, % ± SEM, 0.1% bovine casein and 1.0% human serum albumin, 37° C.) [%] | EC50 (hGIPR; [1]) [nM] | EC50 (hGIPR; cAMP, incubated at 37° C., 0.1% bovine casein (no human serum albumin)) [nM] | Emax (hGLP-1R; HEK293, read-out: hGLP-1R Emax, % ± SEM, percent of maximal response to GLP-1(7-36)NH2, 37° C., 0.1% bovine casein, arithmetic mean) [%] | EC50 (hGLP-1R; [1]) [nM] | EC50 (hGCGR; 0.1% bovine casein and 1.0% human serum albumin, 37° C., geometric mean) [nM] | EC50 (hGCGR; cAMP, incubated at 37° C., 0.1% bovine casein (no human serum albumin), geometric mean) [nM] | Emax (hGIPR; HEK293, read-out: hGIPR Emax, % ± SEM, cAMP, 37° C., 0.1% bovine casein and 1.0% human serum albumin) [%] | Emax (hGIPR; HEK293, read-out: hGIPR Emax, % ± SEM, cAMP, 37° C., 0.1% bovine casein, arithmetic mean) [%] | EC50 (hGIPR; [2]) [nM] | Emax (hGLP-1R; HEK293, read-out: hGLP-1R Emax, % ± SEM, cAMP, 37° C., 0.1% bovine casein and 1.0% human serum albumin, percent of maximal response to GLP-1(7-36)NH2) [%] | EC50 (hGLP-1R; [2]) [nM] | EC50 (hGCGR; cAMP, 37° C., 0.1% bovine casein (no human serum albumin), geometric mean) [nM] | EC50 (hGCGR; cAMP, 37° C., 0.1% bovine casein and 1.0% human serum albumin, geometric mean (SEM, n)) [nM] |
| --- | --- | --- | --- | --- | --- | --- | --- | --- | --- | --- | --- | --- | --- | --- |
| CC[C@H](C)[C@H](NC(=O)[C@H](CC(C)C)NC(=O)[C@](C)(Cc1ccc(O)cc1)NC(=O)[C@H](CCCCNC(=O)COCCOCCNC(=O)COCCOCCNC(=O)CC[C@H](NC(=O)CCCCCCCCCCCCC(=O)O)C(=O)O)NC(=O)[C@@H](NC(=O)[C@H](Cc1ccccc1)NC(=O)[C@H](CCC(=O)O)NC(=O)C(C)(C)NC(=O)[C@H](CCC(N)=O)NC(=O)[C@H](C)NC(=O)[C@H](CCCCNC(=O)COCCOCCNC(=O)COCCOCCNC(=O)CC[C@H](NC(=O)CCCCCCCCCCCCC(=O)O)C(=O)O)NC(=O)[C@H](CCCN)NC(=O)[C@H](CC(=O)O)NC(=O)[C@H](CC(C)C)NC(=O)[C@](C)(CC(C)C)NC(=O)[C@@H](NC(=O)[C@](C)(CO)NC(=O)[C@H](Cc1ccncc1)NC(=O)[C@H](CC(=O)O)NC(=O)[C@H](CO)NC(=O)[C@@H](NC(=O)[C@](C)(Cc1ccccc1F)NC(=O)[C@@H](NC(=O)CNC(=O)[C@H](CCC(=O)O)NC(=O)C(C)(C)NC(=O)[C@@H](N)Cc1ccc(O)cc1)[C@@H](C)O)[C@@H](C)O)[C@@H](C)CC)[C@@H](C)CC)C(=O)N[C@@H](CCC(=O)O)C(=O)NCC(=O)NCC(=O)N1CCC[C@H]1C(=O)N[C@@H](CO)C(=O)N[C@@H](CO)C(=O)NCC(=O)N[C@@H](C)C(=O)N1CCC[C@H]1C(=O)N1CCC[C@H]1C(=O)N1CCC[C@H]1C(=O)N[C@@H](CO)C(N)=O [Example 214] | 80.4 | 2.03 | 0.0351 | 93.2 | 17.9 | > 9950 | > 9950 |  |  |  |  |  |  |  |
| CC[C@H](C)[C@H](NC(=O)[C@H](CCCN)NC(=O)[C@H](CC(=O)O)NC(=O)[C@H](CC(C)C)NC(=O)[C@](C)(CC(C)C)NC(=O)[C@@H](NC(=O)C(C)(C)NC(=O)[C@H](Cc1ccncc1)NC(=O)[C@H](CC(=O)O)NC(=O)[C@H](CO)NC(=O)[C@@H](NC(=O)[C@](C)(Cc1ccccc1F)NC(=O)[C@@H](NC(=O)CNC(=O)[C@H](CCC(=O)O)NC(=O)C(C)(C)NC(=O)[C@@H](N)Cc1ccc(O)cc1)[C@@H](C)O)[C@@H](C)O)[C@@H](C)CC)C(=O)N[C@@H](C)C(=O)N[C@@H](CCC(N)=O)C(=O)NC(C)(C)C(=O)N[C@@H](CCCN)C(=O)N[C@@H](Cc1ccccc1)C(=O)N[C@H](C(=O)N[C@@H](CCCCNC(=O)COCCOCCNC(=O)COCCOCCNC(=O)CC[C@H](NC(=O)CCCCCCCCCOc1ccc(C(=O)O)cc1)C(=O)O)C(=O)N[C@@](C)(Cc1ccc(O)cc1)C(=O)N[C@@H](CC(C)C)C(=O)N[C@H](C(=O)N[C@@H](CCCCNC(=O)COCCOCCNC(=O)COCCOCCNC(=O)CC[C@H](NC(=O)CCCCCCCCCOc1ccc(C(=O)O)cc1)C(=O)O)C(=O)NCC(=O)NCC(=O)N1CCC[C@H]1C(=O)N[C@@H](CO)C(=O)N[C@@H](CO)C(=O)NCC(=O)N[C@@H](C)C(=O)N1CCC[C@H]1C(=O)N1CCC[C@H]1C(=O)N1CCC[C@H]1C(=O)N[C@@H](CO)C(N)=O)[C@@H](C)CC)[C@@H](C)CC [Example 354] (H-Y[Aib]EGT[αMePhe(2-F)]TSD[4Pal][Aib]I[αMeL]LD[Orn]IAQ[Aib][Orn]FIK([AEEA-AEEA-γGlu-Decanoyl(10-(4-HOOC-PhO))])[αMeY]LIK([AEEA-AEEA-γGlu-Decanoyl(10-(4-HOOC-PhO))])GGPSSGAPPPS-NH2) |  |  |  |  |  |  |  | 67.5 | 95.4 | 0.0249 | 95.9 | 0.505 | > 9950 | > 9950 |
